According to patent US9802960B2 (MILLENNIUM PHARMACEUTICALS, INC., priority 2014, dated 2017):

Biological target: Human VPS34 (Homo sapiens (Human), UniProt Q8NEB9)
Test: Human VPS34 enzyme assay (Adapta TR-FRET)
Type: biochemical
Conditions: compound concentration 1.11 μM; for inhibition at 1.11 µM: read-out: Percent Inhibition

Chain of Human VPS34 (Q8NEB9 whole entry): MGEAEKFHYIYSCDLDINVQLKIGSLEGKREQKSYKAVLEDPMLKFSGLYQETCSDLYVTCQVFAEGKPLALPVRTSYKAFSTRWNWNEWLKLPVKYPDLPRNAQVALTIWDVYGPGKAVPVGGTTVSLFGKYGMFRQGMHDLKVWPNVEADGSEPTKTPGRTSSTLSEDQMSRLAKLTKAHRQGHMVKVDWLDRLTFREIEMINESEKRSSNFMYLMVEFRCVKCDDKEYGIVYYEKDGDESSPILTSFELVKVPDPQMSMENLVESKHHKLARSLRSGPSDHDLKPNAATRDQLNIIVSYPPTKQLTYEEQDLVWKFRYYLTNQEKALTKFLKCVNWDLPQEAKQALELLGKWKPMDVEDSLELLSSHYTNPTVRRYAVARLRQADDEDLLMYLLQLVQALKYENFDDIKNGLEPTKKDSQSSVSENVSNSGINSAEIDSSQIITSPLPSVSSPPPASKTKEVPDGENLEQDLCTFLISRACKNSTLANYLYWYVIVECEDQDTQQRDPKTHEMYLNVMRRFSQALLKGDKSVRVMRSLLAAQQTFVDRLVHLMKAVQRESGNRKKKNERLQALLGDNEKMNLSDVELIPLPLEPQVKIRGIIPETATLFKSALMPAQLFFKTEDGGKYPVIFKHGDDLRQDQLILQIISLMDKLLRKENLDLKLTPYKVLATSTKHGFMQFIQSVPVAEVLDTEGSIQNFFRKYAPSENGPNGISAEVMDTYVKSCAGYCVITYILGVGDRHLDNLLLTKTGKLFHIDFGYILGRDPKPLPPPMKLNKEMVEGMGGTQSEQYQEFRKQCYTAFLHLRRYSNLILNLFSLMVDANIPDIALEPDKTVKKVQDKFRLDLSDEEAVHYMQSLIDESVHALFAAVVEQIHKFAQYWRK

SMILES | inhibition at 1.11 µM [%] | Percent Inhibition [%]
CC(=O)Nc1cc(-c2cnc(Cl)c(C(=O)N(C)C)c2)ccn1 [Compound I-213, 2′-acetamido-6-chloro-N,N-dimethyl-3,4′-bipyridine-5-carboxamide] | > 99 | 
CC(=O)Nc1cc(-c2cnc(C)c(NS(=O)(=O)N3CCCCC3)c2)ccn1 [Compound I-214, N-{6-methyl-5-[(piperidin-1-ylsulfonyl)amino]-3,4′-bipyridin-2′-yl}acetamide] | > 99 | 
Cc1nccc(Nc2cc(-c3cnc(Cl)c(S(=O)(=O)NC4CCC4)c3)ccn2)n1 [Compound I-215, 6-chloro-N-cyclobutyl-2′-((2-methylpyrimidin-4-yl)amino)-[3,4′-bipyridine]-5-sulfonamide] | 99 | 
N=C(N)NC(=O)c1cc(-c2ccnc(Nc3ccncn3)c2)cnc1N [Compound I-216, 6-Amino-N-carbamimidoyl-2′-(pyrimidin-4-ylamino)-3,4′-bipyridine-5-carboxamide] | 97 | 
Cc1ncc(-c2ccnc(Nc3ccncn3)c2)cc1NS(=O)(=O)N(C)C [Compound I-217, N,N-dimethyl-Y-[6-methyl-2′-(pyrimidin-4-ylamino)-3,4′-bipyridin-5-yl]sulfuric diamide] | > 99 | 
CC(=O)Nc1cc(-c2cnc(C)c(NS(=O)(=O)c3ccc(F)cc3F)c2)cc[n+]1[O-] [Compound I-219, N-[4-(5-{[(2,4-difluorophenyl)sulfonyl]amino}-6-methylpyridin-3-yl)-1-oxidopyridin-2-yl]acetamide] | 92 | 
COc1ncc(-c2ccnc(NC(C)=O)c2)cc1NS(=O)(=O)N(C)C [Compound I-220, N-{5-[(dimethylsulfamoyl)amino]-6-methoxy-3,4′-bipyridin-2′-yl}acetamide] | 99 | 
Cc1nccc(Nc2cc(-c3cnc(C)c(C(=O)N4CC(F)(F)C4)c3)ccn2)n1 [Compound I-221, (3,3-difluoroazetidin-1-yl){6-methyl-2′-[(2-methylpyrimidin-4-yl)amino]-3,4′-bipyridin-5-yl}methanone] | 97 | 
CNc1ncc(-c2ccnc(Nc3ccncn3)c2)cc1C(=O)N(C)C12CC(C1)C2 [Compound I-222, N-(bicyclo[1.1.1]pent-1-yl)-N-methyl-6-(methylamino)-2′-(pyrimidin-4-ylamino)-3,4′-bipyridine-5-carboxamide] | 93 | 
Cc1nccc(Nc2cc(-c3cnc(C)c(C(=S)N4CCC4)c3)ccn2)n1 [Compound I-223, Azetidin-1-yl{6-methyl-2′-[(2-methylpyrimidin-4-yl)amino]-3,4′-bipyridin-5-yl}methanethione] | 95 | 
COc1ncc(-c2ccnc(Nc3ccnc(C)n3)c2)cc1S(=O)(=O)NC1CCC1 [Compound I-224, N-cyclobutyl-6-methoxy-2′-[(2-methylpyrimidin-4-yl)amino]-3,4′-bipyridine-5-sulfonamide] | 99 | 
COc1nccc(Nc2cc(-c3cnc(Cl)c(NS(=O)(=O)c4ccc(F)cc4F)c3C)ccn2)n1 [Compound I-225, N-{6-chloro-2′-[(2-methoxypyrimidin-4-yl)amino]-4-methyl-3,4′-bipyridin-5-yl}-2,4-difluorobenzene sulfonamide] | > 99 | 
Cc1nccc(Nc2cc(-c3cnc(Cl)c(N)c3C)ccn2)n1 [Compound I-226, 6-chloro-4-methyl-N-2′-(2-methylpyrimidin-4-yl)-3,4′-bipyridine-2′,5-diamine] | 94 | 
CC(=O)Nc1cc(-c2cnc(Cl)c(NS(=O)(=O)c3cc(F)ccc3F)c2C)ccn1 [Compound I-227, N-(6-chloro-5-{[(2,5-difluorophenyl)sulfonyl]amino}-4-methyl-3,4′-bipyridin-2′-yl)acetamide] | > 99 | 
Cc1ncc(-c2ccnc(Nc3ccc(C#N)cn3)c2)cc1NS(=O)(=O)c1ccc(F)cc1F [Compound I-228, N-{2′-[(5-cyanopyridin-2-yl)amino]-6-methyl-3,4′-bipyridin-5-yl}-2,4-difluorobenzene sulfonamide] | > 99 | 
Cc1nc(Nc2cc(-c3cnc(C)c(NS(=O)(=O)N(C)C)c3)ccn2)ccc1C#N [Compound I-229, N-{2′-[(5-cyano-6-methylpyridin-2-yl)amino]-6-methyl-3,4′-bipyridin-5-yl}-N,N-dimethylsulfuric diamide] | > 99 | 

Continued, values first:

inhibition at 1.11 µM [%] | Percent Inhibition [%] | SMILES
97 |  | COc1nccc(Nc2cc(-c3cnc(N)c(C(=O)N(C)C45CC(C4)C5)c3)ccn2)n1 [Compound I-230, 6-amino-N-(bicyclo[1.1.1]pent-1-yl)-2′-((2-methoxypyrimidin-4-yl)amino)-N-methyl-[3,4′-bipyridine]-5-carboxamide]
26 |  | Nc1cncc(-c2ccnc(N)c2)c1 [Compound I-231, 3,4′-bipyridine-2′,5-diamine]
81 |  | Cc1nccc(Nc2cc(-c3cnc(Cl)c(C(=O)N4CCC4)c3)ccn2)n1 [Compound I-232, azetidin-1-yl{6-chloro-2′-[(2-methylpyrimidin-4-yl)amino]-3,4′-bipyridin-5-yl}methanone]
96 |  | Cc1ncc(-c2ccnc(Nc3nc4ccccc4o3)c2)cc1NS(=O)(=O)c1ccc(F)cc1F [Compound I-233, N-[2'-(1,3-benzoxazol-2-ylamino)-6-methyl-3,4′-bipyridin-5-yl]-2,4-difluorobenzene sulfonamide]
90 |  | Cc1nccc(Nc2cc(-c3cncc(C(=O)N(C)C45CC(C4)C5)c3)ccn2)n1 [Compound I-234, N-(bicyclo[1.1.1]pent-1-yl)-N-methyl-2′-[(2-methylpyrimidin-4-yl)amino]-3,4′-bipyridine-5-carboxamide]
92 |  | Cc1ccc2ccc(Nc3cc(-c4cnc(C)c(NS(=O)(=O)c5ccc(F)cc5F)c4)ccn3)nc2n1 [Compound I-235, 2,4-difluoro-N-{6-methyl-2′-[(7-methyl-1,8-naphthyridin-2-yl)amino]-3,4′-bipyridin-5-yl}benzenesulfonamide]
98 |  | CC(=O)Nc1cc(-c2cnc(Cl)c(NS(=O)(=O)N(C)C)c2C)ccn1 [Compound I-236, N-{6-chloro-5-[(dimethylsulfamoyl)amino]-4-methyl-3,4′-bipyridin-2′-yl}acetamide]
91 |  | Cc1ncc(-c2ccnc(Nc3ccnc(C(F)(F)F)n3)c2)cc1NS(=O)(=O)c1ccc(F)cc1F [Compound I-237, 2,4-difluoro-N-(6-methyl-2′-{[2-(trifluoromethyl)pyrimidin-4-yl]amino}-3,4′-bipyridin-5-yl)benzenesulfonamide]
 | 93 | Cc1nc(Nc2cc(-c3cnc(Cl)c(NS(=O)(=O)c4ccc(F)cc4F)c3C)ccn2)ccc1C#N [Compound I-238, N-{6-chloro-2′-[(5-cyano-6-methylpyridin-2-yl)amino]-4-methyl-3,4′-bipyridin-5-yl}-2,4-difluorobenzenesulfonamide]
> 99 |  | Cc1ncc(-c2ccnc(Nc3ccncn3)c2)cc1NS(=O)(=O)c1ccc(F)cc1F [Compound I-239]
> 99 |  | CC(=O)Nc1cc(-c2cnc(Cl)c(NS(=O)(=O)c3ccccc3Cl)c2C)ccn1 [Compound I-240, N-(6-chloro-5-{[(2-chlorophenyl)sulfonyl]amino}-4-methyl-3,4′-bipyridin-2′-yl)acetamide]
